Experimental data: ChEMBL document CHEMBL1201862, “PubChem BioAssay data set” (2004)
Active and inactive are the calls of the source.

Columns and labels:
[1] = target: T1, Sentrin-specific protease 6 (Homo sapiens, UniProt Q9GZR1); type: functional;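 note: Luminescence-based dose-response confirmatory assay of SENP6 inhibition, following up an ultra-high-throughput screen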
T1 sequence (Q9GZR1 whole entry): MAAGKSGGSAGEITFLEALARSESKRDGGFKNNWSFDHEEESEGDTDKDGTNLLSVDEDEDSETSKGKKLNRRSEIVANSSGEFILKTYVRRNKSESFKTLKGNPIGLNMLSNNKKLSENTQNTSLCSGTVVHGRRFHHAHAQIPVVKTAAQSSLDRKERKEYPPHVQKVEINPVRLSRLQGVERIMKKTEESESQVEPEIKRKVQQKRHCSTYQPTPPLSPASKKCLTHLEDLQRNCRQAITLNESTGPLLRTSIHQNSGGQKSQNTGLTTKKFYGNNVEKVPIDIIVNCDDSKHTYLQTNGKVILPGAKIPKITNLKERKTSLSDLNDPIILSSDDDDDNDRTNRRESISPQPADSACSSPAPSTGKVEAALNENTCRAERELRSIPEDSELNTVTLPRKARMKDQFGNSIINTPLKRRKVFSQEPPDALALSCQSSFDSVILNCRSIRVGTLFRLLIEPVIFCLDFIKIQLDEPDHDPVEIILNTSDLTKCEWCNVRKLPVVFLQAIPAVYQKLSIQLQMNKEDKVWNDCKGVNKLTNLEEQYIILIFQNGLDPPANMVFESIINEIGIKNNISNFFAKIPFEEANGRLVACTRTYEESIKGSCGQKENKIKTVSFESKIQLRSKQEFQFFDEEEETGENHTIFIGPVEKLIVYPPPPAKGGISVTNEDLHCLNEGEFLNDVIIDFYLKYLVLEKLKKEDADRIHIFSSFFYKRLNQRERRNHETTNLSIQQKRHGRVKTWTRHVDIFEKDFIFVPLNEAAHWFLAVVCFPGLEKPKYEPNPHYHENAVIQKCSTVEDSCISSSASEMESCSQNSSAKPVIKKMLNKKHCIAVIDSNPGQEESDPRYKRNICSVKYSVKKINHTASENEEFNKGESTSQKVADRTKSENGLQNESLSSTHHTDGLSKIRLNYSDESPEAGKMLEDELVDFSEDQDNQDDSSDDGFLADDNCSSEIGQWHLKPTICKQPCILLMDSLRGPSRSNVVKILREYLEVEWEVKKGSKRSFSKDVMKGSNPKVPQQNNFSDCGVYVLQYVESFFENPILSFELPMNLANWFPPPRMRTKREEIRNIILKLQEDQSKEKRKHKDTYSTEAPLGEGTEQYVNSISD

[2] = target: T2, Sentrin-specific protease 8 (Homo sapiens, UniProt Q96LD8); type: functional;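 note: luminescence read-out of SENP8 inhibition, dose-response confirmation following an ultra-high-throughput screen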
T2 sequence (Q96LD8 whole entry): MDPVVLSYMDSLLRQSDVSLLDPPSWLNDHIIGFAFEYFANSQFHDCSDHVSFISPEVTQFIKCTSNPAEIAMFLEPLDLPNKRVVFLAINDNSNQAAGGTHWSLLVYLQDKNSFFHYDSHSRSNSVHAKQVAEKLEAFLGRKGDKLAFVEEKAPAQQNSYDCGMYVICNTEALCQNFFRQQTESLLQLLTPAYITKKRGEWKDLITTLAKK

[3] = target: T3, Protein RecA (Mycobacterium tuberculosis, UniProt P9WHJ3); test: Fluorescence Cell-Free Homogeneous Dose Retest to Identify Inhibitors of RecA-Intein Splicing Activity. [Related pubchem assays (depositor defined):AID2097, AID2223, AID489010, AID492950]; type: functional
T3 sequence (P9WHJ3 whole entry): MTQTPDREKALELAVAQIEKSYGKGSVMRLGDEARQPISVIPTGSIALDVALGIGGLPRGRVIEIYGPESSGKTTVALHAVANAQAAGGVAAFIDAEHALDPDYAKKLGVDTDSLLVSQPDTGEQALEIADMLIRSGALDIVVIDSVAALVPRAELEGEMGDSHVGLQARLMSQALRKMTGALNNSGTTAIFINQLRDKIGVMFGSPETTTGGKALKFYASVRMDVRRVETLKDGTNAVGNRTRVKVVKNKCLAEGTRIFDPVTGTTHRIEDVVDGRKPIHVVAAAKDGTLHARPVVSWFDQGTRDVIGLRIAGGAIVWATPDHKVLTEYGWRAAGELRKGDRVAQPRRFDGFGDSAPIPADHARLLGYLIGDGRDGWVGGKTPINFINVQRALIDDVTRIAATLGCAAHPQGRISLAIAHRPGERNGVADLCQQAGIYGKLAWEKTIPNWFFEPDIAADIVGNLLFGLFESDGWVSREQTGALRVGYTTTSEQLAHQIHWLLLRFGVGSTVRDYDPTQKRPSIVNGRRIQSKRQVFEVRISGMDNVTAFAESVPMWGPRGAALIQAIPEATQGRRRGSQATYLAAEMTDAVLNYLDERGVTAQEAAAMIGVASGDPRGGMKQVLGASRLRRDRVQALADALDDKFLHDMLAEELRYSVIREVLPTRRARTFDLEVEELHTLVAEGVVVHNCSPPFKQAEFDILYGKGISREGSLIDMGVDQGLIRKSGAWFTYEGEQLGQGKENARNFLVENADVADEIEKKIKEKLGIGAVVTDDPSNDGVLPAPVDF

[4] = target: T4, Tyrosyl-DNA phosphodiesterase 2 (Homo sapiens, UniProt O95551); test: potency against TDP2 phosphodiesterase activity – biochemical, epi absorbance, IC50, dose response (AID 743297)
T4 sequence (O95551 whole entry): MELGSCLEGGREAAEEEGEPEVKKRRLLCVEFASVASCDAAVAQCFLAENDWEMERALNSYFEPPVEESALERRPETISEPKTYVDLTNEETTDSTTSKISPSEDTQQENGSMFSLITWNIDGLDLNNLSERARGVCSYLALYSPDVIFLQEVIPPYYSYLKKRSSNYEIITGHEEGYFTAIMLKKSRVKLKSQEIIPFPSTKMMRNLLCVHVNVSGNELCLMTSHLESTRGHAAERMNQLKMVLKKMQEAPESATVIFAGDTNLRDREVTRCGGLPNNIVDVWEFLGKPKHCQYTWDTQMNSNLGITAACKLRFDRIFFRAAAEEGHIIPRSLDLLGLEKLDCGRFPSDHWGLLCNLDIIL

SMILES	IC50 [1]	IC50 [2]	EC50 [3]	IC50 [4]
Cc1ccc(C(=O)NNc2cc(N3CCCC3)nc(N3CCCC3)n2)cc1	0.838 µM (active)	4.6 µM (active)	–	–
Cc1cc(/C=C2\SC(=S)N(C)C2=O)c(C)n1-c1ccc(O)cc1	4.66 µM (active)	8.79 µM (active)	–	–
COC(=O)c1cccc(-c2ccc(C(c3c(C)n[nH]c3O)c3c(C)n[nH]c3O)o2)c1	–	–	0.175 µM (active)	> 128 µM (inactive)
O=C1/C(=N\c2cccc(O)c2)C(N2CCCCC2)=C(O)c2ccccc21	–	–	0.364 µM (active)	> 42.8 µM (inactive)
